≈ marks a conversion by molar mass, not a printed value. Where two headings read alike, the source gives them in different places.
What was measured:
Assay type in all cases: cell-based
[1] = tested on: Streptococcus pneumoniae 1195 (ATCC 49619); test: MIC by broth microdilution, SPNE 1195
Experimental: (§1) Antibacterial activity in vitro is investigated by broth microdilution method in Meuller-Hinton broth as recommended by NCCLS. All strains tested are clinical isolates either sensitive or resistant to natural glycopeptides. MIC values were determined using the CLSI-recommended broth microdilution procedure (Clinical and Laboratory Standards Institute, Methods for Dilution Antimicrobial Susceptibility Tests for Bacteria That Grow Aerobically; Approved Standard-Seventh Edition.). Automated liquid handlers (Multidrop 384, Labsystems, Helsinki, Finland; Biomek 2000 and Multimek 96, Beckman Coulter, Fullerton Calif.) were used to conduct serial dilutions and liquid transfers. The MIC value for vancomycin is given for comparison. The abbreviations for organisms tested are as follow: SA 100—Staphylococcus aureus 100 (ATCC 29213); SA 757—Staphylococcus aureus 757 (MRSA); SA 2012—Staphylococcus aureus 2012 (VISA); SE 835—Staphylococcus epidermidis 835; SE 831—Staphylococcus epidermidis 831 (MRSE); EFc 101—Enterococcus faecalis 101 (ATCC 29212); EFc 848—Enterococcus faecalis 848 (VRE, Van A); EFcm 800—Enterococcus faecium 800; EFcm 752—Enterococcus faecium 752 (VRE, Van A); SPNE 1195—Streptococcus pneumoniae 1195 (ATCC 49619); SPY 712—Streptococcus pyogenes 712.

[2] = tested on: Staphylococcus aureus 757 (MRSA); test: MIC by broth microdilution, SA 757; conditions: read-out: MIC SA 757
Experimental: as §1

[3] = tested on: Enterococcus faecalis 848 (VRE, Van A); test: MIC by broth microdilution, EFc 848; conditions: class symbols
Experimental: as §1

[4] = tested on: Staphylococcus epidermidis 835; test: MIC by broth microdilution, SE 835
Experimental: as §1

[5] = tested on: Staphylococcus aureus 2012 (VISA); test: MIC by broth microdilution, SA 2012; conditions: class symbols
Experimental: as §1

[6] = tested on: Enterococcus faecium 800; test: MIC by broth microdilution, EFcm 800
Experimental: as §1

[7] = tested on: Enterococcus faecium 752 (VRE, Van A); test: MIC by broth microdilution, EFcm 752; conditions: class symbols
Experimental: as §1

[8] = tested on: Staphylococcus epidermidis 831 (MRSE); test: MIC by broth microdilution, SE 831; conditions: read-out: MIC SE 831
Experimental: as §1

[9] = tested on: Streptococcus pyogenes 712; test: MIC by broth microdilution, SPY 712
Experimental: as §1

[10] = tested on: Staphylococcus aureus 100 (ATCC 29213); test: MIC by broth microdilution, SA 100
Experimental: as §1

[11] = tested on: Enterococcus faecalis 101 (ATCC 29212); test: MIC by broth microdilution, EFc 101; conditions: class symbols
Experimental: as §1

[12] = Streptococcus pneumoniae, ATCC49619, read-out: MIC S PNE 1195
[13] = Enterococcus faecalis, VRE, read-out: MIC E FC 848, Enterococcus faecalis 848 (VRE, Van A)
[14] = Staphylococcus epidermidis, 835, read-out: MIC SE 835
[15] = Staphylococcus aureus, VISA, read-out: MIC SA 2012, Staphylococcus aureus 2012 (VISA)
[16] = Enterococcus faecium, 800, read-out: MIC E FCM 800
[17] = Enterococcus faecium, VRE, read-out: MIC E FCM 752, Enterococcus faecium 752 (VRE, Van A)
[18] = Staphylococcus epidermidis, MRSE
[19] = Streptococcus pyogenes, 712, read-out: MIC S PYO 712
[20] = Staphylococcus aureus, ATCC29213, read-out: MIC SA 100
[21] = Enterococcus faecalis, ATCC29212, read-out: MIC E FC 101, Enterococcus faecalis 101 (ATCC 29212)

| SMILES | MIC [1, 12] | MIC ([2]; Staphylococcus aureus, MRSA) | MIC [3, 13] | MIC [4, 14] | MIC [5, 15] | MIC [6, 16] | MIC [7, 17] | MIC [8, 18] | MIC [9, 19] | MIC [10, 20] | MIC [11, 21] | also measured |
| --- | --- | --- | --- | --- | --- | --- | --- | --- | --- | --- | --- | --- |
| CCCCCOc1ccc(S(=O)(=O)NCCCCCCNC(=O)Oc2cc(O)c3c(c2)[C@@H](C(=O)NC2C4CC5CC(C4)CC2C5)NC(=O)[C@H]2NC(=O)[C@H](NC(=O)[C@@H]4NC(=O)[C@H](CC(N)=O)NC(=O)[C@H](NC(=O)[C@@H](CC(C)C)NC)[C@H](O)c5ccc(c(Cl)c5)Oc5cc4cc(c5O[C@@H]4O[C@H](CO)[C@@H](O)[C@H](O)[C@H]4O[C@H]4C[C@](C)(N)[C@H](O)[C@H](C)O4)Oc4ccc(cc4Cl)[C@H]2O)c2ccc(O)c-3c2)cc1 (some centres unmarked) [Compound 317] | 0.01 to 0.5 µg/mL (≈ 0.00513 to 0.256 µM) | 0.5 to 1 µg/mL (≈ 0.256 to 0.513 µM) | 8 to 16 µg/mL (≈ 4.1 to 8.2 µM) | 2 to 4 µg/mL (≈ 1.03 to 2.05 µM) | 8 to 16 µg/mL (≈ 4.1 to 8.2 µM) | 0.01 to 0.5 µg/mL (≈ 0.00513 to 0.256 µM) | 1 to 2 µg/mL (≈ 0.513 to 1.03 µM) | 1 to 2 µg/mL (≈ 0.513 to 1.03 µM) | 0.01 to 0.5 µg/mL (≈ 0.00513 to 0.256 µM) | 1 to 2 µg/mL (≈ 0.513 to 1.03 µM) | 1 to 2 µg/mL (≈ 0.513 to 1.03 µM) | – |
| CCNCCOc1ccc(CCNC(=O)Oc2cc(O)c3c(c2)[C@@H](C(=O)NC2C4CC5CC(C4)CC2C5)NC(=O)[C@H]2NC(=O)[C@H](NC(=O)[C@@H]4NC(=O)[C@H](CC(N)=O)NC(=O)[C@H](NC(=O)[C@@H](CC(C)C)NC)[C@H](O)c5ccc(c(Cl)c5)Oc5cc4cc(c5O[C@@H]4O[C@H](CO)[C@@H](O)[C@H](O)[C@H]4O[C@H]4C[C@](C)(N)[C@H](O)[C@H](C)O4)Oc4ccc(cc4Cl)[C@H]2O)c2ccc(O)c-3c2)cc1 (some centres unmarked) [Compound 337] | 0.01 to 0.5 µg/mL (≈ 0.0055 to 0.275 µM) | 0.01 to 0.5 µg/mL (≈ 0.0055 to 0.275 µM) | 8 to 16 µg/mL (≈ 4.4 to 8.81 µM) | 0.01 to 0.5 µg/mL (≈ 0.0055 to 0.275 µM) | 1 to 2 µg/mL (≈ 0.55 to 1.1 µM) | 0.01 to 0.5 µg/mL (≈ 0.0055 to 0.275 µM) | 4 to 8 µg/mL (≈ 2.2 to 4.4 µM) | 0.01 to 0.5 µg/mL (≈ 0.0055 to 0.275 µM) | 0.01 to 0.5 µg/mL (≈ 0.0055 to 0.275 µM) | 0.01 to 0.5 µg/mL (≈ 0.0055 to 0.275 µM) | 0.01 to 0.5 µg/mL (≈ 0.0055 to 0.275 µM) | – |
| CCCCCCc1ccc(S(=O)(=O)NCCCCCCNCc2c(O)cc3c(c2O)-c2cc(ccc2O)[C@H]2NC(=O)[C@@H]4NC(=O)[C@H](CC(N)=O)NC(=O)[C@H](NC(=O)[C@@H](CC(C)C)NC)[C@H](O)c5ccc(c(Cl)c5)Oc5cc4cc(c5O[C@@H]4O[C@H](CO)[C@@H](O)[C@H](O)[C@H]4O[C@H]4C[C@](C)(NC(=O)CCCCCN)[C@H](O)[C@H](C)O4)Oc4ccc(cc4Cl)[C@@H](O)[C@H](NC2=O)C(=O)N[C@@H]3C(=O)O)cc1 (atropisomer, axis not shown) [Compound 344] | – | – | – | – | – | – | – | – | – | – | – | MIC ([1]; ATCC49619, Streptococcus pneumoniae 1195 (ATCC 49619), class symbols, read-out: MIC S PNE 1195): 0.01 to 0.5 µg/mL (≈ 0.00522 to 0.261 µM); MIC ([2]; Staphylococcus aureus 757 (MRSA), class symbols): 0.01 to 0.5 µg/mL (≈ 0.00522 to 0.261 µM); MIC ([3]; Enterococcus faecalis 848 (VRE, Van A), read-out: MIC E FC 848): 4 to 8 µg/mL (≈ 2.09 to 4.18 µM); MIC ([4]; Staphylococcus epidermidis 835, class symbols, read-out: MIC SE 835): 0.01 to 0.5 µg/mL (≈ 0.00522 to 0.261 µM); MIC ([5]; Staphylococcus aureus 2012 (VISA), read-out: MIC SA 2012): 0.01 to 0.5 µg/mL (≈ 0.00522 to 0.261 µM); MIC ([6]; Enterococcus faecium 800, class symbols, read-out: MIC E FCM 800): 0.01 to 0.5 µg/mL (≈ 0.00522 to 0.261 µM); MIC ([7]; Enterococcus faecium 752 (VRE, Van A), read-out: MIC E FCM 752): 1 to 2 µg/mL (≈ 0.522 to 1.04 µM); MIC ([8]; Staphylococcus epidermidis 831 (MRSE), class symbols): 0.01 to 0.5 µg/mL (≈ 0.00522 to 0.261 µM); MIC ([9]; Streptococcus pyogenes 712, class symbols, read-out: MIC S PYO 712): 0.01 to 0.5 µg/mL (≈ 0.00522 to 0.261 µM); MIC ([10]; ATCC29213, Staphylococcus aureus 100 (ATCC 29213), class symbols, read-out: MIC SA 100): 0.01 to 0.5 µg/mL (≈ 0.00522 to 0.261 µM); MIC ([11]; ATCC29212, Enterococcus faecalis 101 (ATCC 29212), read-out: MIC E FC 101): 0.01 to 0.5 µg/mL (≈ 0.00522 to 0.261 µM) |
| CNCCCCCNC(=O)Oc1cc(O)c2c(c1)[C@@H](C(=O)NC1C3CC4CC(C3)CC1C4)NC(=O)[C@H]1NC(=O)[C@H](NC(=O)[C@@H]3NC(=O)[C@H](CC(N)=O)NC(=O)[C@H](NC(=O)[C@@H](CC(C)C)NC)[C@H](O)c4ccc(c(Cl)c4)Oc4cc3cc(c4O[C@@H]3O[C@H](CO)[C@@H](O)[C@H](O)[C@H]3O[C@H]3C[C@](C)(N)[C@H](O)[C@H](C)O3)Oc3ccc(cc3Cl)[C@H]1O)c1ccc(O)c-2c1 (some centres unmarked) [Compound 336] | 0.01 to 0.5 µg/mL (≈ 0.0058 to 0.29 µM) | 0.01 to 0.5 µg/mL (≈ 0.0058 to 0.29 µM) | > 16 µg/mL | 0.01 to 0.5 µg/mL (≈ 0.0058 to 0.29 µM) | 1 to 2 µg/mL (≈ 0.58 to 1.16 µM) | 0.01 to 0.5 µg/mL (≈ 0.0058 to 0.29 µM) | > 16 µg/mL | 0.01 to 0.5 µg/mL (≈ 0.0058 to 0.29 µM) | 0.01 to 0.5 µg/mL (≈ 0.0058 to 0.29 µM) | 0.01 to 0.5 µg/mL (≈ 0.0058 to 0.29 µM) | 0.01 to 0.5 µg/mL (≈ 0.0058 to 0.29 µM) | – |

Source: patent publication US20110015119A1, “NOVEL SEMI-SYNTHETIC GLYCOPEPTIDES AS ANTIBACTERIAL AGENTS” (LEAD THERAPEUTICS, INC., priority 2009, published 2011)
